# Experimental data reported in PMC3792051, “Polyenylpyrrole Derivatives Inhibit NLRP3 Inflammasome Activation and Inflammatory Mediator Expression by Reducing Reactive Oxygen Species Production and Mitogen-Activated Protein Kinase Activation” (PLoS ONE, 2013).
# How the values were obtained:
# [1] = test system: LPS-activated primary peritoneal macrophages; assay: IL-6 and TNF-α secretion by ELISA; type: cell-based, C57BL/6 mice; conditions: 10-40 µM, LPS 1 µg/ml 24 h
# Method: (§1) The effects of the test samples on IL-1β, TNF-α, and IL-6 production were measured by ELISA according to the manufacturer’s instructions. In brief, 50 µl of biotinylated antibody reagent and 50 µl of supernatant were added to a stripwell plate precoated with anti-mouse IL-1β, TNF-α, or IL-6 antibodies, which was then incubated at room temperature for 2 h. After washing the plate three times with washing buffer, 100 µl of diluted streptavidin-HRP concentrate was added to each well and the plate incubated at room temperature for 30 min. […] After addition of 100 µl of stop solution to each well, the absorbance at 450 nm of each well was measured on a microplate reader.
# (§2) Figure 3 Effect of compound 1h on LPS-induced secretion of IL-6 and TNF-α by J774A.1 macrophages, peritoneal macrophages, and JAWSII dendritic cells. (A) J774A.1 macrophages, (B) peritoneal macrophages, or (C) JAWSII dendritic cells (all 4 × 10^5/ml; 1 ml) were incubated for 30 min with 10-40 µM compound 1h or DMSO, then LPS (1 µg/ml) was added and incubation continued for 24 h, then IL-6 levels (left panels) and TNF-α levels (right panels) in the culture medium were measured by ELISA. The data are expressed as the mean ± SD for three separate experiments. *, **, and *** indicate a significant difference at the level of p < 0.05, p < 0.01, or p < 0.001, respectively, compared to the DMSO/LPS group.
# [2] = test system: LPS-activated J774A.1 macrophages; assay: IL-6 and TNF-α secretion by ELISA; type: cell-based, murine; conditions: J774A.1, 10-40 µM, LPS 1 µg/ml 24 h
# Method: (§3) The effects of the test samples on IL-1β, TNF-α, and IL-6 production were measured by ELISA according to the manufacturer’s instructions. In brief, 50 µl of biotinylated antibody reagent and 50 µl of supernatant were added to a stripwell plate precoated with anti-mouse IL-1β, TNF-α, or IL-6 antibodies, which was then incubated at room temperature for 2 h. After washing the plate three times with washing buffer, 100 µl of diluted streptavidin-HRP concentrate was added to each well and the plate incubated at room temperature for 30 min. The washing process was repeated, then 100 µl of a premixed tetramethylbenzidine substrate solution was added to each well and the plate incubated at room temperature in the dark for 30 min. After addition of 100 µl of stop solution to each well, the absorbance at 450 nm of each well was measured on a microplate reader.
# as §2
# [3] = test system: LPS-activated JAWSII dendritic cells; assay: IL-6 and TNF-α secretion by ELISA; type: cell-based, murine; conditions: 10-40 µM, LPS 1 µg/ml 24 h
# Method: as §3, §2
# [4] = test system: NLRP3 inflammasome in LPS+ATP-activated peritoneal macrophages; assay: NLRP3 inflammasome-mediated IL-1β secretion (ELISA); type: cell-based, mouse; conditions: compound 10-40 µM 30 min before LPS 5.5 h, then ATP 5 mM 30 min
# Method: as §1, with “reader. […]” for “reader.”
# Figure 4 Effect of compound 1h on NLRP3 inflammasome activation in LPS+ATP-activated J774A.1 macrophages. (A) J774A.1 macrophages (1 × 10^6/ml; 1 ml) or (B) peritoneal macrophages (1 × 10^5/ml; 1 ml) were incubated with 10-40 µM compound 1h or DMSO for 30 min, then LPS (1 µg/ml) was added and incubation continued for 5.5 h, then the cells were stimulated with ATP (5 mM) for an additional 30 min, then IL-1β in the culture medium was measured by ELISA (A, upper panel; B) and levels of active caspase-1 (p10) (A, lower panel) measured by Western blotting. […]
smiles,measurement,setting,value
O=c1cc(O)cc(/C=C/C=C/C=C/C=C/c2[nH]ccc2Cl)o1 [compound 1h],LPS-induced IL-6 secretion,[1],reduced secretion of IL-6 and TNF-α
same,LPS-induced TNF-α secretion,[1],reduced secretion of IL-6 and TNF-α
same,LPS-induced IL-6 secretion,[2],reduced secretion of IL-6 and TNF-α
same,LPS-induced TNF-α secretion,[2],reduced secretion of IL-6 and TNF-α
same,LPS-induced IL-6 secretion,[3],reduced LPS-induced IL-6 and TNF-α secretion
same,LPS-induced TNF-α secretion,[3],reduced LPS-induced IL-6 and TNF-α secretion
same,IL-1β secretion,[4],inhibited IL-1β secretion by primary peritoneal macrophages
